In the supplement of paper PMC10307832 one finds relative viability data, which are given here for 1 cell line.

Holding throughout (assay): relative viability (nuclei count vs DMSO), 5 days (fraction); higher = more cells survive
Compound in the assay “Ispinesib + Pictilisib”: Cc1ccc(C(=O)N(CCCN)[C@@H](c2nc3cc(Cl)ccc3c(=O)n2Cc2ccccc2)C(C)C)cc1 [Ispinesib] + CS(=O)(=O)N1CCN(Cc2cc3nc(-c4cccc5[nH]ncc45)nc(N4CCOCC4)c3s2)CC1 [Pictilisib] (partner 1 µM)
Put shortly: (§1)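 Lung cancer cell lines, seeded in 1536-well plates, were treated the following day by pin tool with a single drug or with five library-drug doses (not always all listed) in √10 steps on top of a fixed anchor-drug dose. Cells were fixed and nuclei stained in one step after 5 days, and nuclei were counted. Relative viability is the nuclei count for treated wells divided by that for vehicle wells, reported as medians of duplicate plates.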

Compound in the assay “Ispinesib + OSI-027”: Cc1ccc(C(=O)N(CCCN)[C@@H](c2nc3cc(Cl)ccc3c(=O)n2Cc2ccccc2)C(C)C)cc1 [Ispinesib] + COc1cccc2cc(-c3nc([C@H]4CC[C@H](C(=O)O)CC4)n4ncnc(N)c34)[nH]c12 [OSI-027] (partner 0.5 µM)
Put shortly: as §1

Compound in the assay “Linsitinib + Tozasertib”: C[C@]1(O)C[C@@H](c2nc(-c3ccc4ccc(-c5ccccc5)nc4c3)c3c(N)nccn32)C1 [Linsitinib] + Cc1cc(Nc2cc(N3CCN(C)CC3)nc(Sc3ccc(NC(=O)C4CC4)cc3)n2)n[nH]1 [Tozasertib] (partner 0.1 µM)
Put shortly: as §1

Compound in the assay “Ispinesib + Olaparib”: Cc1ccc(C(=O)N(CCCN)[C@@H](c2nc3cc(Cl)ccc3c(=O)n2Cc2ccccc2)C(C)C)cc1 [Ispinesib] + O=C(c1cc(Cc2n[nH]c(=O)c3ccccc23)ccc1F)N1CCN(C(=O)C2CC2)CC1 [Olaparib] (partner 8 µM)
Put shortly:
as §1

Consider UMC-11, for which the relative viability in the assay with Ispinesib + Pictilisib (first compound 0.001 µM) is 0.653; with Ispinesib + Pictilisib (first compound 0.003162 µM), 0.94; in the assay with Ispinesib + Pictilisib (first compound 0.01 µM), 0.701; with Ispinesib + Pictilisib (first compound 0.03162 µM), 0.2; with Ispinesib + Pictilisib (first compound 0.1 µM) it was 0.263; in the assay with Ispinesib + OSI-027 (first compound 0.001 µM), 0.484. The relative viability came out at 0.429 in the assay with Ispinesib + OSI-027 (first compound 0.003162 µM); 0.445 with Ispinesib + OSI-027 (first compound 0.01 µM); 0.219 in the assay with Ispinesib + OSI-027 (first compound 0.03162 µM); 0.239 in the assay with Ispinesib + OSI-027 (first compound 0.1 µM); 0.204 in the assay with Linsitinib + Tozasertib (first compound 0.01 µM); 0.196 in the assay with Linsitinib + Tozasertib (first compound 0.1 µM). Also, the relative viability is 0.19 with Linsitinib + Tozasertib (first compound 1 µM); 0.693 in the assay with Ispinesib + Olaparib (first compound 0.001 µM); 0.389 with Ispinesib + Olaparib (first compound 0.003162 µM); 0.345 with Ispinesib + Olaparib (first compound 0.01 µM); 0.325 with Ispinesib + Olaparib (first compound 0.03162 µM); 0.272 in the assay with Ispinesib + Olaparib (first compound 0.1 µM).
